Test results published in patent US9701630B2, “Difluorolactam compositions for EP4-mediated osteo related diseases and conditions” (Cayman Chemical Company, Inc., priority 2012, dated 2017).
pEC50: −log10 of the molar value.

How the values were obtained:
rat EP4 receptor = target: T1, rat EP4 receptor (Rattus norvegicus, UniProt P43114); experiment: STEP plate cAMP level assay for EP4 agonist; format: cell-based; conditions: cAMP readout, read-out: STEP cell functional assay EC50s cAMP/EP4
T1 construct: host or cells: cells seeded on the STEP plate
T1 sequence (P43114 whole entry): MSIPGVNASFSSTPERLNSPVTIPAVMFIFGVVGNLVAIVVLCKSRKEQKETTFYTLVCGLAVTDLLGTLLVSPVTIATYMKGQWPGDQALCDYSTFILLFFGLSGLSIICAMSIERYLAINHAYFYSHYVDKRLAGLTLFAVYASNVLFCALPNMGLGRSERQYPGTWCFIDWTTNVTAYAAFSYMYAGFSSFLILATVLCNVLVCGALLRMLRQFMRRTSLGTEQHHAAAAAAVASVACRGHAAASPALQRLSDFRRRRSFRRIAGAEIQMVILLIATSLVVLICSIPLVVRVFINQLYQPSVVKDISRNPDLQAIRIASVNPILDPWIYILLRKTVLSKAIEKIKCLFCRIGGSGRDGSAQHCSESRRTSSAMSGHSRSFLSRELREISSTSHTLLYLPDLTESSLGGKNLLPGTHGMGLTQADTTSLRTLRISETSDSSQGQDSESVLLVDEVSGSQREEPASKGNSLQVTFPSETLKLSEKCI
Source text: Functional Cellular Assays (STEP Plate Format)
Procedure of cAMP Assay for EP2/EP4 Agonist
3. […] In addition each concentration had triplicates.
6. Aspirate the supernatant.

calvarial bone defect = experiment: Rat calvarial defect model (bone formation); format: in vivo; conditions: female Sprague Dawley rats, in calcium phosphate cement/demineralized bone matrix, 3 μg/ml to 3 mg/ml, eight weeks; data in FIG. 1

SMILES	pEC50 (rat EP4 receptor)	Healing of a calvarial bone defect (degree of repair) (calvarial bone defect)
COC(=O)c1ccc(CCCN2C(=O)C(F)(F)C[C@@H]2/C=C/[C@@H](O)[C@H](C)CCCc2ccccc2)s1 [Example 28E, methyl 5-(3-((R)-3,3-difluoro-5-((3S,4R,E)-3-hydroxy-4-methyl-7-phenylhept-1-en-1-yl)-2-oxopyrrolidin-1-yl)propyl)thiophene-2-carboxylate]	7.29	–
CCC#CC[C@H](C)[C@H](O)/C=C/[C@H]1CC(F)(F)C(=O)N1CCCCCCC(=O)O [Example 2C, 7-((R)-3,3-difluoro-5-((3S,4S,E)-3-hydroxy-4-methylnon-1-en-6-yn-1-yl)-2-oxopyrrolidin-1-yl)heptanoic acid]	–	Accelerated Healing
